Results published in US20240158446A1, “CYCLIC COMPOUND HAVING SELECTIVE INHIBITORY ACTION ON KRAS OVER HRAS AND NRAS” (CHUGAI SEIYAKU KABUSHIKI KAISHA, priority 2021, published 2024).
Read-outs that look alike come from different tables or passages of the source. *1 amine or outer side, *2 acyl side, *3 side chain or, on linkers, in order; H or OH if unused. Where a SMILES comes first, the peptide text is derived from it. Bridges are numbered along the chain shown (N, C = ends). [ ]: non-standard residue; d: D form. The star is where a group is joined. X25 = O=C([C@H](Cc1ccc(C(F)(F)F)cc1)N(CCC(F)(F)F)[*:1])[*:2]; hPhe(3-Cl-4-CF3) = N[C@@H](CCc1ccc(C(F)(F)F)c(Cl)c1)C(=O)O; X36 = Cc1ccc(C[C@@H](C(=O)[*:2])N(CCC(F)(F)F)[*:1])cc1; NPrPhe(4-CF3) = CCCN[C@@H](Cc1ccc(C(F)(F)F)cc1)C(=O)O; NMeGly(cPent) = CN[C@H](C(=O)O)C1CCCC1; Pro(4,4-F2) = O=C(O)[C@@H]1CC(F)(F)CN1; NMeF = CN[C@@H](Cc1ccccc1)C(=O)O; NMeD = CN[C@@H](CC(=O)O)C(=O)O; NMeL = CN[C@@H](CC(C)C)C(=O)O; Morpholide = C1CN(*)CCO1; NMeA = CN[C@@H](C)C(=O)O; Ac5c = NC1(C(=O)O)CCCC1; Aze = O=C(O)[C@@H]1CCN1; Sar = CNCC(=O)O

Key:
[1] = biological target: GDP-bound NRAS wild-type protein (Homo sapiens, UniProt P01111); experiment: Binding to NRAS by surface plasmon resonance (SPR), Single Cycle Kinetics; settings: SPR, GDP-bound NRAS wild-type protein vs GDP-bound KRAS wild-type protein
Chain of GDP-bound NRAS wild-type protein (P01111 whole entry): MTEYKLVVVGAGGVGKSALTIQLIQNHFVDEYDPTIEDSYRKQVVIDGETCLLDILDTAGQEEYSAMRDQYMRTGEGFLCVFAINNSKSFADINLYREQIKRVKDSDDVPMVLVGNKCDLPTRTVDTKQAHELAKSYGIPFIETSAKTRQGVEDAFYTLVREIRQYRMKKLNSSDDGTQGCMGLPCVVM

[2] = biological target: GDP-bound HRAS wild-type protein (Homo sapiens, UniProt P01112); experiment: Binding to HRAS by surface plasmon resonance (SPR), Single Cycle Kinetics; settings: SPR, GDP-bound HRAS wild-type protein vs GDP-bound KRAS wild-type protein
Chain of GDP-bound HRAS wild-type protein (P01112 whole entry): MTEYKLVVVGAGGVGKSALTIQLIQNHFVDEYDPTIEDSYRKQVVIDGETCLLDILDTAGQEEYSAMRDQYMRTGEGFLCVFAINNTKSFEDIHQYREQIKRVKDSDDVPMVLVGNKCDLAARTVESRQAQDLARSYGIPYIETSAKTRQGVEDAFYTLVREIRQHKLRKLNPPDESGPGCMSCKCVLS

[3] = biological target: GDP-bound KRAS wild-type protein (Homo sapiens, UniProt P01116); experiment: Binding to KRAS by surface plasmon resonance (SPR), Single Cycle Kinetics; settings: GDP-bound KRAS wild-type protein, read-out: KRAS KD
Chain of GDP-bound KRAS wild-type protein (P01116 whole entry): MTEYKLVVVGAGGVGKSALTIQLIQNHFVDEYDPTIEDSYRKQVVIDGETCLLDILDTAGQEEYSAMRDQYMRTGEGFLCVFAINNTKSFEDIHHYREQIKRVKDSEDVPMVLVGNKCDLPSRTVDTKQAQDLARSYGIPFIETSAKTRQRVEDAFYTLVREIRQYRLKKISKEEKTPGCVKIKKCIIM

[4] = SPR Single Cycle Kinetics, 1:1 binding model

Kd [3, 4] [pM] | SMILES | NRAS/KRAS (ratio of KD value with respect to NRAS to KD value with respect to KRAS) [1] | HRAS/KRAS (ratio of KD value with respect to HRAS to KD value with respect to KRAS) [2] | NRAS/KRAS (ratio of KD value for NRAS to KD value for KRAS) [1] | HRAS/KRAS (ratio of KD value for HRAS to KD value for KRAS) [2] | other results
1100 | CC[C@H](C)[C@@H]1NC(=O)[C@H](CC(C)C)N(C)C(=O)C[C@@H](C(=O)N2CCOCC2)N(C)C(=O)[C@H](C2CCCC2)N(C)C(=O)C2(CC(F)(F)C2)NC(=O)[C@@H]2CCCN2C(=O)[C@H](CCc2cc(F)c(C(F)(F)F)c(F)c2)NC(=O)CN(C)C(=O)[C@H](Cc2ccc(C(F)(F)F)cc2)N2CCCCC[C@@H](C2=O)N(C)C(=O)CN(C)C1=O [PP0499] | B (a compound having 3 or more and less than 10 is denoted as B) | B (a compound having 3 or more and less than 10 is denoted as B) |  |  | 
150 | CC[C@H](C)[C@@H]1NC(=O)[C@H](CC(C)C)N(C)C(=O)C[C@@H](C(=O)N2CCOCC2)N(C)C(=O)[C@H](C2CCCC2)N(C)C(=O)C2(CCCC2)NC(=O)[C@@H]2CCCN2C(=O)[C@H](CCc2ccc(C(F)(F)F)c(Cl)c2)NC(=O)CN(C)C(=O)[C@H](Cc2ccc(C)cc2)N(CCC(F)(F)F)C(=O)CN(C)C(=O)CN(C)C1=O [PP0103] ([NMeL]I[Sar][Sar][X36][Sar][hPhe(3-Cl-4-CF3)]P[Ac5c][NMeGly(cPent)][NMeD]-Morpholide; lactam N-11) |  |  | B (a compound having 3 or more and less than 10 is denoted as B) | C (A compound having a KD ratio of 0.1 or more and less than 3 is denoted as C) | 
170 | CC[C@H](C)[C@@H]1NC(=O)[C@H](CC(C)C)N(C)C(=O)C[C@@H](C(=O)N2CCOCC2)N(C)C(=O)[C@H](C2CCCC2)N(C)C(=O)C2(CCCC2)NC(=O)[C@@H]2CCCN2C(=O)[C@H](CCc2ccc(C(F)(F)F)c(Cl)c2)NC(=O)CN(C)C(=O)[C@H](Cc2ccccc2)N(C)C(=O)CN(C)C(=O)CN(C)C1=O [PP0039] ([NMeL]I[Sar][Sar][NMeF][Sar][hPhe(3-Cl-4-CF3)]P[Ac5c][NMeGly(cPent)][NMeD]-Morpholide; lactam N-11) |  |  | C (A compound having a KD ratio of 0.1 or more and less than 3 is denoted as C) | C (A compound having a KD ratio of 0.1 or more and less than 3 is denoted as C) | 
330 | CCC(CC)[C@@H]1NC(=O)[C@H](CC(C)C)N(C)C(=O)C[C@@H](C(=O)N2CCOCC2)N(C)C(=O)[C@H](C2CCCC2)N(C)C(=O)C2(CCCC2)NC(=O)[C@@H]2CCCN2C(=O)[C@H](CCc2cc(F)c(C(F)(F)F)c(F)c2)NC(=O)CN(C)C(=O)[C@H](Cc2ccc(C(F)(F)F)cc2)N2CCCC[C@@H](C2=O)N(C)C(=O)CN(C)C1=O [PP0597] | B (a compound having 3 or more and less than 10 is denoted as B) | B (a compound having 3 or more and less than 10 is denoted as B) |  |  | 
29000 | CC[C@H](C)[C@@H]1NC(=O)[C@H](CC(C)C)N(C)C(=O)C[C@@H](C(=O)N2CCOCC2)N(C)C(=O)[C@H](C2CCCC2)N(C)C(=O)C2(CCCC2)NC(=O)[C@H](C)N(CC)C(=O)[C@H](CCc2cc(F)c(C(F)(F)F)c(F)c2)NC(=O)CN(C)C(=O)[C@H](Cc2ccc(C(F)(F)F)cc2)N2CCCCC[C@@H](C2=O)N(C)C(=O)CN(C)C1=O [PP0515] | B (a compound having 3 or more and less than 10 is denoted as B) | B (a compound having 3 or more and less than 10 is denoted as B) |  |  | 
140 | CC[C@H](C)[C@@H]1NC(=O)[C@H](CC(C)C)N(C)C(=O)C[C@@H](C(=O)N2CCOCC2)N(C)C(=O)[C@H](C2CCCC2)N(C)C(=O)C2(CCCC2)NC(=O)[C@@H]2CCCN2C(=O)[C@H](CCc2ccc(C(F)(F)F)c(Cl)c2)NC(=O)CN(C)C(=O)[C@H](Cc2ccc(C(F)(F)F)cc2)N(CCC(F)(F)F)C(=O)CN(C)C(=O)CN(C)C1=O [PP0131] ([NMeL]I[Sar][Sar][X25][Sar][hPhe(3-Cl-4-CF3)]P[Ac5c][NMeGly(cPent)][NMeD]-Morpholide; lactam N-11) |  |  | B (a compound having 3 or more and less than 10 is denoted as B) | C (A compound having a KD ratio of 0.1 or more and less than 3 is denoted as C) | 
150 | CCCN1C(=O)[C@@H]2CCN2C(=O)[C@H](C)N(C)C(=O)[C@H]([C@@H](C)CC)NC(=O)[C@H](CC(C)C)N(C)C(=O)C[C@@H](C(=O)N2CCOCC2)N(C)C(=O)[C@H](C2CCCC2)N(C)C(=O)C2(CCCC2)NC(=O)[C@@H]2CC(F)(F)CN2C(=O)[C@H](CCc2ccc(C(F)(F)F)c(Cl)c2)NC(=O)CN(C)C(=O)[C@@H]1Cc1ccc(C(F)(F)F)cc1 [PP0196] ([NMeL]I[NMeA][Aze][NPrPhe(4-CF3)][Sar][hPhe(3-Cl-4-CF3)][Pro(4,4-F2)][Ac5c][NMeGly(cPent)][NMeD]-Morpholide; lactam N-11) |  |  | C (A compound having a KD ratio of 0.1 or more and less than 3 is denoted as C) | C (A compound having a KD ratio of 0.1 or more and less than 3 is denoted as C) | 
35 | CCCN1C(=O)CN(C)C(=O)CN(C)C(=O)[C@H]([C@@H](C)CC)NC(=O)[C@H](CC(C)C)N(C)C(=O)C[C@@H](C(=O)N(C)C)N(C)C(=O)[C@H](C2CCCC2)N(C)C(=O)C2(CCCC2)NC(=O)[C@@H]2CCCN2C(=O)[C@H](CCc2ccc(C(F)(F)F)c(Cl)c2)NC(=O)CN(C)C(=O)[C@@H]1Cc1ccc(C(F)(F)F)cc1 [PP0169] ([NMeL]I[Sar][Sar][NPrPhe(4-CF3)][Sar][hPhe(3-Cl-4-CF3)]P[Ac5c][NMeGly(cPent)][NMeD]-NMe2; lactam N-11) |  |  | B (a compound having 3 or more and less than 10 is denoted as B) | B (a compound having 3 or more and less than 10 is denoted as B) | 
 | CCO[C@@H]1C[C@H]2C(=O)NC3(CCCC3)C(=O)N(C)[C@@H](C3CCCC3)C(=O)N(C)[C@H](C(=O)N(C)C)CC(=O)N(C)[C@@H](CC)C(=O)N[C@@H]([C@@H](C)CC)C(=O)N(C)CC(=O)N(C)[C@H]3C[C@H](C)C(C)CN(C3=O)[C@@H](Cc3ccc(C(F)(F)F)cc3)C(=O)N(C)CC(=O)N[C@@H](CCc3cc(F)c(C(F)(F)F)c(F)c3)C(=O)N2C1 (stereo partly drawn) [PP1347] |  |  |  |  | NRAS/KRAS (ratio of KD value for NRAS to KD value for KRAS) ([1]; KD ratio class): B (a compound having 3 or more and less than 10 is denoted as B); HRAS/KRAS (ratio of KD value for HRAS to KD value for KRAS) ([2]; KD ratio class): B (a compound having 3 or more and less than 10 is denoted as B); Kd ([3]; SPR, Single Cycle Kinetics, 1:1 binding model): 17 pM
 | CCO[C@@H]1C[C@H]2C(=O)NC3(CC=CC3)C(=O)N(C)[C@@H](C3CCCC3)C(=O)N(CC)[C@H](C(=O)N3CCOCC3)CC(=O)N(C)[C@@H](CC(C)C)C(=O)N[C@@H]([C@@H](C)CC)C(=O)N(C)CC(=O)N(C)[C@H]3CCCCCN(C3=O)[C@@H](Cc3ccc(C(F)(F)F)cc3)C(=O)N(C)CC(=O)N[C@@H](CCc3cc(F)c(C(F)(F)F)c(F)c3)C(=O)N2C1 [PP0956] |  |  | A (a compound having 10 or more and less than 20 is denoted as A) | A (a compound having 10 or more and less than 20 is denoted as A) | Kd ([3]; SPR, Single Cycle Kinetics): 7200 pM
